Legend:
Assay type in all cases: cell-based, human
MMP-1 [1] = assay: ELISA of MMP-1 release into cell culture supernatant of HaCaT cells; settings: 1, 10, or 100 nM RA; unpublished observations
Procedure: HaCaT cells were supplemented with 0.5, 1.5, or 3 μM β-carotene for 2 days prior to UVA (270 kJ/m^2) irradiation. MMP-1 and TIMP-1 secretion 24 hours after irradiation was analyzed by ELISA. Each condition was represented by three replicates in the experiment. Values are means±standard error.
Release of MMP-1, and TIMP-1 into cell culture supernatant was determined by ELISA at 24 hours after irradiation. MMP-1 and TIMP-1 release was measured using MMP-1 and TIMP ELISA from CALBIOCHEM (San Diego, Calif., USA). The ELISAs were performed according to the manufacturer's instructions.

MMP-10 = assay: QRT-PCR gene expression in HaCaT cells with or without UVA
Procedure: (§1) HaCaT cells were obtained from Prof. Fusenig, German Cancer Research Centre, Heidelberg. […] The accuracy of cell counting was approximately 99%.
(§2) On day 3 of the experiment, cells were washed six times with Ca/Mg-free PBS containing 2% BSA, and then irradiated with light with a Hönle sun lamp Sol 500 (Dr. Hönle, Plannegg, Germany) at a dose of 270 kJ/m^2 in Ca/Mg-free PBS (2 hour exposure time at […]). The experimental schedule was chosen because the cells had optimal UVA sensitivity after 48 hours in culture. […] Confluent cultures were much less sensitive to irradiation.
(§3) After irradiation, the cells were supplied with fresh β-carotene-containing serum-free medium and kept in the incubator at 37° C., 5% CO2 until harvest of the samples. In experiments in which the half-life of ^1O2 was prolonged by D2O to enhance its effect, PBS was prepared in D2O, instead of in H2O, as it was done for the standard conditions described above. Cells were washed twice in D2O-PBS prior to irradiation in D2O-PBS. After irradiation, cells were maintained with fresh β-carotene-containing serum-free medium. Sham controls were treated in an identical manner, by placing them under the solar simulator but shielded from light.
(§4) Total RNA was isolated by using Trizol™ (Invitrogen, Basel, Switzerland) according to the instructions of the manufacturer. Random-primed cDNA was synthesized using the Superscript pre-amplification system for first strand cDNA synthesis (Invitrogen).
(§5) cDNA corresponding to 10 ng total RNA was used as template to quantify the relative RNA expression of the genes of interest by TaqMan® real time PCR.
(§6) The PCR analyses were carried out in triplicate and in a multiplex setup, using 18S rRNA as a calibrator gene. The rRNA primers were used at a final concentration of 50 nM, the probe at 100 nM. For quantification of the genes of interest, the primer concentrations were optimized for sensitivity of template detection. […] PCR reactions were carried out for 40 cycles of 95° C. for 15 seconds and 60° C. for 1 minute in an ABI7700 (Applied Biosystems, Rotkreuz, Switzerland). Regulation of gene expression was calculated as described in user bulletin #2 provided by the manufacturer. A threshold cycle (“CT”) is the first PCR cycle in which an amplification signal is detected. Expression levels are given as δCT values. The δCT value describes the level of gene expression as the average PCR cycle, in which the gene of interest was detected first (CT value), subtracted by the CT value of the calibrator gene 18S rRNA (CTgene of interest−CTcalibrating gene), 18S rRNA served as a measure for the amount of template in the reaction. Routinely, 18S rRNA was detected between PCR cycle 12 and 13 (SE=standard error) A low δCT corresponds to a high mRNA level.

MMP-3 = assay: as above
Procedure: as §1, §2, §3, §4, §5, §6

MMP-1 [2] = assay: as above
Procedure: as §1, §2, §3, §4, §5, §6

TIMP-1 = assay: as above; settings: vitamin E 50 μM
Procedure: as §1
Vitamin E (RRR-α-tocopherol; DSM Nutritional Products, Kaiseraugst, Switzerland) stock solutions and vitamin E-containing media were prepared as described for β-carotene-containing solutions, except that vitamin E was dissolved in ethanol. In experiments addressing the vitamin E effect, vitamin E was used in a final concentration of 50 μM. Again, the solvent concentration was kept constant at 0.03% ethanol for all conditions.
as §2, with “irradiation. […]” for “irradiation.”
as §5
The PCR analyses were carried out in triplicate and in a multiplex setup, using 18S rRNA as a calibrator gene. […] For quantification of the genes of interest, the primer concentrations were optimized for sensitivity of template detection. […] Regulation of gene expression was calculated as described in user bulletin #2 provided by the manufacturer. A threshold cycle (“CT”) is the first PCR cycle in which an amplification signal is detected. […] The δCT value describes the level of gene expression as the average PCR cycle, in which the gene of interest was detected first (CT value), subtracted by the CT value of the calibrator gene 18S rRNA (CTgene of interest−CTcalibrating gene), 18S rRNA served as a measure for the amount of template in the reaction. Routinely, 18S rRNA was detected between PCR cycle 12 and 13 (SE=standard error) A low δCT corresponds to a high mRNA level.

[3] = vitamin E 50 μM with β-carotene 1.5 μM

| SMILES | UVA-induced MMP-1 secretion (MMP-1 [1]) | cooperation with β-carotene in reducing UVA-induction of MMP-10 (MMP-10; [3]) | MMP-10 expression (MMP-10; vitamin E alone, 50 μM) | cooperation with β-carotene in reducing UVA-induction of MMP-3 (MMP-3; [3]) | MMP-3 expression (MMP-3; vitamin E alone, 50 μM) | cooperation with β-carotene in reducing UVA-induction of MMP-1 (MMP-1 [2]; [3]) | MMP-1 expression (MMP-1 [2]; vitamin E alone, 50 μM) | UVA-suppressed TIMP-1 expression (TIMP-1) |
| --- | --- | --- | --- | --- | --- | --- | --- | --- |
| CC1=C(/C=C/C(C)=C/C=C/C(C)=C/C(=O)O)C(C)(C)CCC1 [RA, retinoic acid] | no effect |  |  |  |  |  |  |  |
| Cc1c(C)c2c(c(C)c1O)CC[C@@](C)(CCC[C@H](C)CCC[C@H](C)CCCC(C)C)O2 [vitamin E, RRR-α-tocopherol] |  | did not cooperate | no effect | did not cooperate | no effect | did not cooperate | no effect | restored |

— patent US20160304957A1, “TREATMENT AND MODULATION OF GENE EXPRESSION AND SKIN AGING” (DSM NUTRITIONAL PRODUCTS LTD., priority 2006, published 2016)
